In one series the test system is KB. Description: Cytotoxicity against human KB cells after 72 hrs by MTT assay. It counts as functional, cell-based.
Series [1] is described as follows: Anticancer activity against human 95-D cells xenografted in BALB/c mouse assessed as inhibition of tumor growth at 50 mg/kg, ig administered 2 to 3 times a week for 20 days measured post last dose. It counts as functional. Conditions: po, 480 h, route intragastric.
Series [2] can be described thus: Anticancer activity against human 95-D cells xenografted in BALB/c mouse at 50 mg/kg, ig administered 2 to 3 times a week for 20 days measured post last dose relative to control. It is filed as functional. Conditions: route intragastric.
The nature of series [3]: Cytotoxicity against human 95-D cells after 72 hrs by MTT assay. It counts as functional, cell-based.
The subject of a further series is A549. As to the kind of experiment: Cytotoxicity against human A549 cells after 72 hrs by MTT assay. It counts as functional, cell-based. Particulars: A549, 72 h.
The next series has as its system Mus musculus. Description: Toxicity in BALB/c mouse xenografted with human 95-D cells assessed as body weight at 50 mg/kg, ig administered 2 to 3 times a week for 20 days measured post last dose (reference value: 21.6 +/- 0.6 gm). It counts as organism-based. Further details: dose 50 mg/kg, route intragastric. Conditions: in vivo, po, 480 h.
Series [4] is described as follows: Cytotoxicity against human KB/VCR cells after 72 hrs by MTT assay. It counts as functional, cell-based.

Molecules are shown by their SMILES.

As for `COc1cc([C@@H]2c3cc4c(cc3[C@@H](Nc3ccc(NC(=O)c5ccc(OC(C)=O)cc5)cc3)[C@H]3COC(=O)[C@H]23)OCO4)cc(OC)c1O`, the IC50 with KB stood at 1.91 µM; in series [3] it was 0.42 µM; with A549, 2.68 µM; in series [4], 8.48 µM. Moreover, the inhibition in vivo at 50 mg/kg in series [1] came out at 57.3%. Also, the Activity in series [2] is on record as 46.3%; with Mus musculus, 16.8 g.

The values are drawn from ChEMBL document CHEMBL1649404, “Synthesis and biological evaluation of new 4β-anilino-4'-O-demethyl-4-desoxypodophyllotoxin derivatives as potential antitumor agents” (Eur J Med Chem, 2011).
